From patent US20040115706A1, “High-throughput methods for identifying quadruplex forming nucleic acids and modulators thereof” (priority 2002, published 2004) come the findings set out here.

What all share (type): binding
One series concerns ds DNA pGL3. Kind of series: EB competition with NMM or TMPyP4 for ds DNA. The following applies: 6.5 μg/μl pGL3; presence or absence of EB; FIG. 4C. The procedure: Next, the effect of EB competition with NMM or TMPyP4 for ds DNA was assessed. The assay was carried out as described in the previous paragraph, with 6.5 μg/μl pGL3, and the results were graphically compiled in FIG. 4C.
pGL3 was purchased from Promega, Madison, Wis. pGL3/myc included the nuclease hypersensitive element (NHE) MYC8 fragment from the proximal region of human c-MYC. pGL3/myc was constructed by cloning the MYC8 fragment from human genomic DNA (Promega, Madison, Wis.) and inserting that fragment into the multiple cloning site of the pGL3 vector via Nhe I and Bgl II digestion and ligation. The MYC8 fragment (840 bp) was cloned from human genomic DNA using two primer oligonucleotides. The sense strand primer oligonucleotide for the c-MYC regulatory region had the nucleotide sequence 5′-[…]-3′ (SEQ ID NO: 36; Nhe I site is underlined), which corresponded to site 1993 in the sense strand GenBank sequence. The antisense primer had the nucleotide sequence 5′-[…]-3′ (SEQ ID NO: 37; Bgl II site is underlined), which corresponded to site 2833 in the sense strand GenBank sequence. The Genbank sequence was the Homo sapiens MYC gene, c-myc proto-oncogene and ORF1, Length=10996 (http address: www.ncbi.nlm.nih.gov/entrez/query.fcgi?cmd=Retrieve&db=nucleotide&list_uids=188965&dopt=GenBank). The construct was confirmed by sequencing.

Series [1] deals with ds DNAs pGL3E or pGL3E/myc. As to the kind of experiment: Specificity of signal molecules for double-stranded DNA. The following applies: 3 μM NMM (FIG. 4A) or 3 μM EB (FIG. 4B). The procedure: (§1) The specificity of signal molecules NMM and ethidium bromide was assessed with respect to single-stranded (ss) DNA and double-stranded (ds) DNA. Fluorescence was plotted as a function of the concentration of ss DNA QB-1 or ds DNAs pGL3E or pGL3E/myc, under conditions of 3 μM NMM (FIG. 4A) or 3 μM EB (FIG. 4B). Fluorescence of NMM was measured as described in Example 1. Fluorescence of EB was measured at an excitation wavelength of 485 nm and an emission wavelength 590 nm using a FluoStar 2000 fluorometer (BMG Labtechnologies, Durham, N.C.). Ethidium bromide (EB) was obtained from Calbiochem, San Diego, Calif.
pGL3 was purchased from Promega, Madison, Wis. pGL3/myc included the nuclease hypersensitive element (NHE) MYC8 fragment from the proximal region of human c-MYC. pGL3/myc was constructed by cloning the MYC8 fragment from human genomic DNA (Promega, Madison, Wis.) and inserting that fragment into the multiple cloning site of the pGL3 vector via Nhe I and Bgl II digestion and ligation. The MYC8 fragment (840 bp) was cloned from human genomic DNA using two primer oligonucleotides. The sense strand primer oligonucleotide for the c-MYC regulatory region had the nucleotide sequence 5′-[…]-3′ (SEQ ID NO: 36; Nhe I site is underlined), which corresponded to site 1993 in the sense strand GenBank sequence. […]

The subject of the next series is ss DNA QB-1. Kind of series: Specificity of signal molecules for single-stranded DNA. The conditions noted are these: 3 μM NMM (FIG. 4A) or 3 μM EB (FIG. 4B). As for the experimental part: as §1
Series [2] relates to non-quadruplex nucleic acid QB-2. As to the kind of experiment: Signal molecule fluorescence assay with nucleic acid not capable of forming a quadruplex. The conditions noted are these: 3 μM signal molecule; excitation 420 nm, emission 660 nm; FIG. 2A/2B. As for the experimental part:
(§2) A typical assay was carried out in 100 μl of 20 mM HEPES buffer, pH 7.0, 140 mM NaCl, and 100 mM KCl. Fifty μl of quadruplex nucleic acid or a nucleic acid not capable of forming a quadruplex were added in 96-well plate. 50 μl of signal molecule was then added for a final concentration of 3 μM. N-methylmesoporphyrin IX (NMM) and meso-tetrakis(N-methyl-4-pyridyl)porphine (TMPyP4) were tested as signal molecules. Fluorescence was measured at an excitation wavelength of 420 nm and an emission wavelength of 660 nm for each of these signal molecules using a FluoStar 2000 fluorometer (BMG Labtechnologies, Durham, N.C.). NMM and TMPyP4 were obtained from Frontier Scientific Inc, Logan, Utah. Fluorescence was plotted as a function of concentration of nucleic acid added to the system at a constant 3 μM concentration of NMM (FIG. 2A) or TMPyP4 (FIG. 2B).

Series [3] has as its system quadruplex nucleic acid QB-1. Kind of series: Signal molecule fluorescence assay with quadruplex nucleic acid. The conditions noted are these: for fluorescent signal / interaction with quadruplex nucleic acid QB-1: 3 μM signal molecule, excitation 420 nm, emission 660 nm, FIG. 2A/2B. As for the experimental part: as §2, with “Fifty” for “A typical assay was carried out in 100 μl of 20 mM HEPES buffer, pH 7.0, 140 mM NaCl, and 100 mM KCl. Fifty”

Series [4] in a line: Identification of quadruplex forming nucleic acids by probing with NMM. The following applies: for capability of forming a quadruplex structure: 0.1 to 10 μM test nucleic acid probed with 3 μM NMM, FIG. 2C; for interaction with NMM (quadruplex forming profile): 3 μM NMM, FIG. 2E. The procedure: as §2
In this study, several oligonucleotides were analyzed to determine which of them were capable of forming quadruplex structures. The oligonucleotides in Table 2 were synthesized by Applied Biosystems (Foster City, Calif.).
FIG. 2E depicts quadruplex forming profiles for oligonucleotides QB-1 and QB-11 to QB-25.

The subject of series [5] is quadruplex nucleic acid QB-1. Kind of series: Competition of test molecules with NMM for quadruplex nucleic acid QB-1. The conditions noted are these: QB-1 5 μM, NMM 3 μM; FIG. 3. The procedure:
Test molecules were mixed with the quadruplex nucleic acid QB-1 in a 96-well plate and fluorescence backgrounds were monitored under the conditions specified in Example 1. NMM was then added to wells in the 96-well plate to a final concentration of 3 μM. Fluorescence of NMM was measured at an excitation wavelength of 420 nm and an emission wavelength of 660 nm using a FluoStar 2000 fluorometer (BMG Labtechnologies, Durham, N.C.). Maximum fluorescent signals for NMM were assessed in the absence of the test molecules. Fluorescence was plotted as a function of the concentration of three test molecules with constant concentrations of QB-1 (5 μM) and NMM (3 μM)(FIG. 3). The test compounds were telomestatin, QQ28, and serinodisaphyrin (see, e.g., Shin-ya et al., J. Am. Chem. Soc. 123:1262 (2001); Duan et al., Mol. Cancer Therapeutics 1:103 (2001)).

For `CCC1=C(C)c2cc3[nH]c(cc4nc(cc5c(CCC(=O)O)c(C)c(cc1n2)n5C)C(CCC(=O)O)=C4C)c(C)c3CC` [NMM, N-methylmesoporphyrin IX], in the series on ds DNA pGL3, the “interaction with ds DNA” value is reported as “did not interact with ds DNA”. Also, the “interaction with double-stranded DNA” value in series [1] is recorded as “did not interact appreciably with ds DNA”. In the series on ss DNA QB-1, the “interaction with single-stranded DNA” value was “interacted with ssDNA”. The “fluorescent signal / interaction with non-quadruplex nucleic acid QB-2” value in series [2] is reported as “did not interact appreciably”. Further, in series [3], the “fluorescent signal / interaction with quadruplex nucleic acid QB-1” value is on record as “interacted with quadruplex nucleic acid QB-1”. Also, the “stabilization of quadruplex structure” value in series [3] (without the addition of potassium ions, FIG. 2A) is given as “could stabilize quadruplex structure without the addition of potassium ions”.

For `C[n+]1ccc(-c2c3nc(c(-c4cc[n+](C)cc4)c4ccc([nH]4)c(-c4cc[n+](C)cc4)c4nc(c(-c5cc[n+](C)cc5)c5ccc2[nH]5)C=C4)C=C3)cc1` [TMPyP4, meso-tetrakis(N-methyl-4-pyridyl)porphine], in the series on ds DNA pGL3, the “interaction with ds DNA” value was “did interact with ds DNA”. For the same compound, the “fluorescent signal / interaction with non-quadruplex nucleic acid QB-2” value in series [2] is “varied significantly”. In series [3] (3 μM TMPyP4, FIG. 2B, likely due to quenching), the “change of emitted signal with increasing quadruplex nucleic acid concentrations” value was “decreased with increasing quadruplex nucleic acid concentrations”. For the same compound, in series [3], the “fluorescent signal / interaction with quadruplex nucleic acid QB-1” value is “varied significantly”.

With “QB-1: 5′-AGGGTGGGGAGGGTGGGGAA-3′, SEQ ID NO 17, c-MYC (DNA, backbone not given here)”, in series [4], the “capability of forming a quadruplex structure” value (from here on “capability”) is “capable of forming a quadruplex structure”.

For “QB-9: 5′-GGGGTTTTGGGG-3′, SEQ ID NO 19, dimers for quadruplex of basket or crossover structure (DNA, backbone not given here)”, the “capability” value in series [4] is given as “capable of forming a quadruplex structure”.

Take “QB-10: 5′-GGTTGGTGTGGTTGG-3′, SEQ ID NO 20, intramolecular edge, or chair structure (DNA, backbone not given here)”: the “capability” value in series [4] is listed as “capable of forming a quadruplex structure”.

Turning to “QB-20: 5′-GTGGTGGGTGGGTGGGT-3′, SEQ ID NO 30, T30177 (DNA, backbone not given here)”, in series [4], the “interaction with NMM (quadruplex forming profile)” value (shortened to “interaction with NMM”) was “interacted most significantly”.

Regarding “QB-23: 5′-CGCTTGATGAGTCAGCCGGAA-3′, SEQ ID NO 33, AP-1 (DNA, backbone and methylation of C not given here)”, the “interaction with NMM” value in series [4] is given as “did not appreciably interact with NMM”.

Take “QB-25: 5′-CCTTCCCCACCCTCCCCACCCTCCCCA-3′, SEQ ID NO 35, c-MYC (DNA, backbone and methylation of C not given here)”: the “interaction with NMM” value in series [4] is given as “did not appreciably interact with NMM”.

serinodisaphyrin: in series [5], the “affinity of interaction with the quadruplex DNA (competition with NMM)” value is reported as “intermediate affinity” and the “identification as quadruplex interacting molecule” value is listed as “identified as quadruplex interacting molecules”.
